Data as given in patent US10080714B2, “Peptides and their use in the treatment of hair” (Avon Products, Inc., priority 2015, dated 2018).
Square brackets hold non-standard residues; d marks the D form. Ends that are not written are not given here. Ava = NCCCCC(=O)O

How the values were obtained:
Format in all cases: cell-based, human
[1] = test system: Hair Germinal Matrix Cells; assay: Proliferation of hair matrix cells (BrdU proliferation kit); conditions: for Proliferation (%): 24 h treatment, percent change in cell proliferation relative to vehicle control; for Effect on Hair Germinal Matrix Cell proliferation (in words): at the concentrations tested
Experimental: Hair Germinal Matrix Cells (ScienCell, Carlsbad, Calif.) were grown in 96-well tissue culture plate (5000 cells/well) in MSCM medium supplemented with growth factors (ScienCell, Carlsbad, Calif.). Cells were incubated overnight at 37° C. and 5% CO2. Next, media were aspirated and cells were incubated in MSCM medium without growth supplement for 4-6 h, followed by treatment with given concentration of peptides for 24 h. After treatment cells were incubated with BrdU for 4 h and proliferation rate was evaluating using BrdU proliferation kit from Cell Signaling (Danvers, Mass.). The results are summarized in Table 2 below as percent change cell proliferation relative to vehicle control (peptide concentrations provided in parentheses) using the following key: 0: <10%, +:11-20%, ++:21-40%, +++:41-60%, ++++:>60%.

[2] = test system: Keratin35; assay: Keratin 35 mRNA expression in Hair Germinal Matrix Cells (qPCR); conditions: for Keratin 35 mRNA expression: 0.0001 wt. % peptide, 48 h, percent change in mRNA expression relative to vehicle control, normalized to GAPDH; for Effect on Keratin 35 mRNA expression (in words): at the concentration tested
Experimental: (§1) Hair Germinal Matrix Cells (ScienCell, Carlsbad, Calif.) were grown in 6-well tissue culture plate (1.5×10^5 cells/well) in MSCM medium supplemented with growth factors (ScienCell, Carlsbad, Calif.). Cells were incubated overnight at 37° C. and 5% CO2. Next day, cells were changed into fresh media and treated with given concentration of peptides for 48 h. After treatment, cells were washed with ice cold PBS, collected into RLT lysis buffer and RNA was extracted using RNeasy Mini Kit (Qiagen, Valencia, Calif.) following manufactures recommendations. 200 ng of RNA was used for cDNA synthesis using High Capactiy cDNA Reverse Transcription Kit (Life Technologies, Carlsbad, Calif.). 1 μL of undiluted cDNA was used per qPCR reaction. Primers used were purchased from Life technologies (Carlsbad, Calif.). Following primers were used: Keratin35 (Hs0060557_g1), KAP8 (Hs00545666_s1), KAP11 (Hs00545667_s1), P-cadherin (Hs00999925_m1). Expression was normalized to GAPDH. The conditions of q-PCR were: an incubation step at 50° C. for 2 minutes and an enzyme activation step at 95° C. for 10minutes; followed by 45 cycles of 95° C. for 30 seconds and 60° C. for 1 minute. CT value was obtained from the software of the Stratagene MX2005P.

[3] = test system: KAP8; assay: KAP8 mRNA expression in Hair Germinal Matrix Cells (qPCR); conditions: for KAP 8 mRNA expression: 0.0001 wt. % peptide, 48 h, percent change in mRNA expression relative to vehicle control, normalized to GAPDH; for Effect on Keratin Associated Protein 8 mRNA expression (in words): at the concentration tested
Experimental: as §1

[4] = test system: KAP11; assay: KAP11 mRNA expression in Hair Germinal Matrix Cells (qPCR); conditions: for KAP 11 mRNA expression: 0.0001 wt. % peptide, 48 h, percent change in mRNA expression relative to vehicle control, normalized to GAPDH; for Effect on KAP11 mRNA expression (in words): at the concentration tested
Experimental: as §1

[5] = test system: P-cadherin; assay: P-cadherin mRNA expression in Hair Germinal Matrix Cells (qPCR); conditions: for P-cadherin mRNA expression: 0.0001 wt. % peptide, 48 h, percent change in mRNA expression relative to vehicle control, normalized to GAPDH; for Effect on levels of desmosomal protein P-cadherin (in words): at the concentration tested
Experimental: as §1

In the case of “K-Ava-YNTK: K-Ava-derivative of tripeptide YNT; Ava = amino valeric acid (K[Ava]YNTK)”, the “Proliferation (%)” value ([1]; 0.00001 wt. % peptide) is reported as 0 (0: <10%), the “Proliferation (%)” value ([1]; 0.0001 wt. % peptide) is reported as 0 (0: <10%) and the “Keratin 35 mRNA expression” value [2] is reported as 0 (0; <10%). The “Effect on Keratin 35 mRNA expression (in words)” value [2] was “not effective”, the “KAP 8 mRNA expression” value [3] was 0 (0; <10%) and the “Effect on Keratin Associated Protein 8 mRNA expression (in words)” value [3] was “not effective”. The “KAP 11 mRNA expression” value [4] was 0 (0; <10%), the “Effect on KAP11 mRNA expression (in words)” value [4] was “not effective” and the “P-cadherin mRNA expression” value [5] was “+++ (+++: 41-60%)”. For the same substance, the “Effect on levels of desmosomal protein P-cadherin (in words)” value [5] was “effect was enhanced”.
For “PVG: tripeptide of the amino acid sequence PVG”, the “Proliferation (%)” value ([1]; 0.00001 wt. % peptide) was 0 (0: <10%), the “Proliferation (%)” value ([1]; 0.0001 wt. % peptide) was “+ (+:11-20%)” and the “Effect on Hair Germinal Matrix Cell proliferation (in words)” value [1] was “effectively increase”. The “Keratin 35 mRNA expression” value [2] was 0 (0; <10%), the “KAP 8 mRNA expression” value [3] was “++++ (++++: >60%)” and the “Effect on Keratin Associated Protein 8 mRNA expression (in words)” value [3] was “effectively increase”. The “KAP 11 mRNA expression” value [4] was 0 (0; <10%) and the “P-cadherin mRNA expression” value [5] was 0 (0; <10%).
For “K-Ava-PVGK: K-Ava-derivative of tripeptide PVG; Ava = amino valeric acid (K[Ava]PVGK)”, the “Proliferation (%)” value ([1]; 0.00001 wt. % peptide) was 0 (0: <10%), the “Proliferation (%)” value ([1]; 0.0001 wt. % peptide) was 0 (0: <10%) and the “Keratin 35 mRNA expression” value [2] was “+++ (+++: 41-60%)”. For the same substance, the “Effect on Keratin 35 mRNA expression (in words)” value [2] was “effective in upregulating”, the “KAP 8 mRNA expression” value [3] was “++++ (++++: >60%)” and the “Effect on Keratin Associated Protein 8 mRNA expression (in words)” value [3] was “effective in upregulating”. The “KAP 11 mRNA expression” value [4] was “+++ (+++: 41-60%)”, the “Effect on KAP11 mRNA expression (in words)” value [4] was “effective in upregulating” and the “P-cadherin mRNA expression” value [5] was 0 (0; <10%).
For “YNT: tripeptide of the amino acid sequence YNT”, the “Proliferation (%)” value ([1]; 0.00001 wt. % peptide) was 0 (0: <10%), the “Proliferation (%)” value ([1]; 0.0001 wt. % peptide) was “++ (++:21-40%)” and the “Effect on Hair Germinal Matrix Cell proliferation (in words)” value [1] was “effectively increase”. For the same substance, the “Keratin 35 mRNA expression” value [2] was 0 (0; <10%), the “KAP 8 mRNA expression” value [3] was “++++ (++++: >60%)” and the “Effect on Keratin Associated Protein 8 mRNA expression (in words)” value [3] was “effectively increase”. The “KAP 11 mRNA expression” value [4] was “++++ (++++: >60%)”, the “P-cadherin mRNA expression” value [5] was “+ (+: 11-20%)” and the “Effect on levels of desmosomal protein P-cadherin (in words)” value [5] was “effective in boosting”.
